Where two headings read alike, the source gives them in different places.
Key:
[1] = target: AEA-DA lipid probe targets in Neuro2a cells (Mus musculus, UniProt P97300); conditions: competitor 25 μM; for SILAC ratio, NPTN (Q9Y639): Neuro2a cells, AEA-DA probe
[2] = target: T1, AEA-DA lipid probe targets in Neuro2a cells (Mus musculus, UniProt Q80WJ7)
T1 sequence (Q80WJ7 1-579): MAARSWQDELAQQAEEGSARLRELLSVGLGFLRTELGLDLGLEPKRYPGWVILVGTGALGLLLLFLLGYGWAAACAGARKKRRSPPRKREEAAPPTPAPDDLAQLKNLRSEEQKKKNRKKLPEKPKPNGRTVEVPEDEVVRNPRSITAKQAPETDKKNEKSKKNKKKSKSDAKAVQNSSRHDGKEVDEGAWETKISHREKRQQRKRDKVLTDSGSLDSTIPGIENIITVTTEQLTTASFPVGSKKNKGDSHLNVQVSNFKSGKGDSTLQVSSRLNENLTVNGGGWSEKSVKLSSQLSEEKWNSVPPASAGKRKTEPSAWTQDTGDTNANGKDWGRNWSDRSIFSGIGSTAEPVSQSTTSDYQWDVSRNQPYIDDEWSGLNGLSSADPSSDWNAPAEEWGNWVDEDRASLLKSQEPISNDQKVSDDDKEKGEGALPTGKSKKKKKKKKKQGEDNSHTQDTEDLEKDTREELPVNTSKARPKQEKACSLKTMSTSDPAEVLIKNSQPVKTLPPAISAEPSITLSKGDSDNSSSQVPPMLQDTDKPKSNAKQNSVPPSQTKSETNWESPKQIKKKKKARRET

[3] = target: AEA-DA lipid probe targets in Neuro2a cells (Mus musculus, UniProt Q8BWM0)
AEA-DA lipid probe targets in Neuro2a cells (Mus musculus, UniProt Q8BWM0), sequence (Q8BWM0 whole entry): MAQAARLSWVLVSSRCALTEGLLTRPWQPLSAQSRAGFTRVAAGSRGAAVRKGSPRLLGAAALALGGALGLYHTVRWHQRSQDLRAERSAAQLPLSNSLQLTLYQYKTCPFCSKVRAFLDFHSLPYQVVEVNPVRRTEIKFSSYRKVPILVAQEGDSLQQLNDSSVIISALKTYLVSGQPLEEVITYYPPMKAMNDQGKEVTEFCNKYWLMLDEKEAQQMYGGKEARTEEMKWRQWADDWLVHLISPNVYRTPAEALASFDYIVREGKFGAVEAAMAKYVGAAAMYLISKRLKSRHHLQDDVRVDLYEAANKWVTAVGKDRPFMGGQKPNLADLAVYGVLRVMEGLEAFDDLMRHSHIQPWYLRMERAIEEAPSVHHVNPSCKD

[4] = target: T2, AEA-DA lipid probe targets in Neuro2a cells (Mus musculus, UniProt Q8CHK3)
T2 sequence (Q8CHK3 1-473): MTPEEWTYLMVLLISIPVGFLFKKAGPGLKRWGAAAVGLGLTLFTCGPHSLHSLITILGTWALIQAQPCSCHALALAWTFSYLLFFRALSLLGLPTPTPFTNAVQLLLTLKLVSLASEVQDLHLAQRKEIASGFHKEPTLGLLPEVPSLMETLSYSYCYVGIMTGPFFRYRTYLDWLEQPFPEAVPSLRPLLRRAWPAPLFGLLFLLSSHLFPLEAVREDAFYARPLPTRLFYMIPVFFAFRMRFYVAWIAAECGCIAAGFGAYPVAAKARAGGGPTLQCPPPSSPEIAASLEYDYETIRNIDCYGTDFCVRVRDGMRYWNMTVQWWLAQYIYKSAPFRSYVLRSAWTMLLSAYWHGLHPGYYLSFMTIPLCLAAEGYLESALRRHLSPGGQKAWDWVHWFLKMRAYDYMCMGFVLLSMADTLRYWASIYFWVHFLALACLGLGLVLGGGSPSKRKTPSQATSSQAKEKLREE

[5] = target: T3, AEA-DA lipid probe targets in Neuro2a cells (Mus musculus, UniProt Q91XD7)
T3 sequence (Q91XD7 30-420): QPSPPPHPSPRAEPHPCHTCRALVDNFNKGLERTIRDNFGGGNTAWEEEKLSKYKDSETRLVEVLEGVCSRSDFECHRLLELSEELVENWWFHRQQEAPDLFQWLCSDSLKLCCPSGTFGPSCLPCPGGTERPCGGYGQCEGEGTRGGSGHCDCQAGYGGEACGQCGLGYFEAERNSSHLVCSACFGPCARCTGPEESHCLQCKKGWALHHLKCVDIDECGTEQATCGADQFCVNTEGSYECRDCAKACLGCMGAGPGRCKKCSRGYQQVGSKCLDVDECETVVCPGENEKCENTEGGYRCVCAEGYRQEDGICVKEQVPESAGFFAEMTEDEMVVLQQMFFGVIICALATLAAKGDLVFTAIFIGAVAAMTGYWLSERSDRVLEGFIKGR

[6] = target: T4, AEA-DA lipid probe targets in Neuro2a cells (Mus musculus, UniProt Q9DC61)
T4 sequence (Q9DC61 34-524): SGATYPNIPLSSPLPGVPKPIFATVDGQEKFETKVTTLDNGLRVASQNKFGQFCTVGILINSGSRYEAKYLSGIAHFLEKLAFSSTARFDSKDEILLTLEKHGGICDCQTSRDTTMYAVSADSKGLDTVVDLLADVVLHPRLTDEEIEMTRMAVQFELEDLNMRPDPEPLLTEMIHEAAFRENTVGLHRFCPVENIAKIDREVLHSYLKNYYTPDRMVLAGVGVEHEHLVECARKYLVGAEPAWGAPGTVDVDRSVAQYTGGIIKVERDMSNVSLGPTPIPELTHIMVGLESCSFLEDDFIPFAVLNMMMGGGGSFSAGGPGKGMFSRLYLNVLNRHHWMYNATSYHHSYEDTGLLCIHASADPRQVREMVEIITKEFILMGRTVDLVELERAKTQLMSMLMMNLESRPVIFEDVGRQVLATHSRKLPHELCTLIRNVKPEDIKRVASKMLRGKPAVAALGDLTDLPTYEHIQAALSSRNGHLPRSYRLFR

[7] = target: T5, AEA-DA lipid probe targets in Neuro2a cells (Mus musculus, UniProt Q9JMF7)
T5 sequence (Q9JMF7 1-238): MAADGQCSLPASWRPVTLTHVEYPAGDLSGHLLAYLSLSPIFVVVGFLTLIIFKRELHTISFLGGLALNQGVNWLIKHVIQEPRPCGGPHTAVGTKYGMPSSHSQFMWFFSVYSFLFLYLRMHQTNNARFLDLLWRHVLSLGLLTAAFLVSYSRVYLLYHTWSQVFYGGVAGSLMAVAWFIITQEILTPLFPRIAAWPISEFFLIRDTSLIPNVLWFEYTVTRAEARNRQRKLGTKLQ

AEA-DA lipid probe targets in Neuro2a cells (Mus musculus, UniProt P97300), sequence (P97300 29-397): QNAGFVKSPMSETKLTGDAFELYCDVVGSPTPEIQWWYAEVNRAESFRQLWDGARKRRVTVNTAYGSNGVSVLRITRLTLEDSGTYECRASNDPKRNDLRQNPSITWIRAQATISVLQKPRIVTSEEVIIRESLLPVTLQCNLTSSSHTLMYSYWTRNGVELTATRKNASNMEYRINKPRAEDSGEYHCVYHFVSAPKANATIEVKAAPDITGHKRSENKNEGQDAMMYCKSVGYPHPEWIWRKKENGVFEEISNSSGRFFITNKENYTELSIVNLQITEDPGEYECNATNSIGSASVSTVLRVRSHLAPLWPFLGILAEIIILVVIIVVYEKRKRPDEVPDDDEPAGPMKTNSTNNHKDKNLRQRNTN

Structure (SMILES) | SILAC ratio, NPTN (Q9Y639) [1] | SILAC ratio, Nptn [1] | SILAC ratio Mtdh ([2]; competitor 25 μM) | SILAC ratio, Ptges2 ([3]; competitor 25 μM) | SILAC ratio, Mboat7 ([4]; competitor 25 μM) | SILAC ratio, Creld1 ([5]; competitor 25 μM) | SILAC ratio, Pmpca ([6]; competitor 25 μM) | SILAC ratio, Dolpp1 ([7]; competitor 25 μM) | further results
O=C(/C=C/c1cccnc1)NCCCCC1CCN(C(=O)c2ccccc2)CC1 [FK-866, reference compound] | 1.2 | 1.2 | 1.2 | 1.4 | 1.1 | 1.3 | 1.2 | 1.2 | –
CCCCC/C=C\C/C=C\C/C=C\C/C=C\CCCC(=O)NCCO [AEA, anandamide, reference compound] | – | – | – | – | – | – | – | – | SILAC ratio Mtdh ([2]; competitor 200 μM): 1.7; SILAC ratio, Ptges2 ([3]; competitor 200 μM): 2.1; SILAC ratio, Creld1 ([5]; competitor 200 μM): 1.8; SILAC ratio, Pmpca ([6]; competitor 200 μM): 1.9; SILAC ratio, Dolpp1 ([7]; competitor 200 μM): 2.2
CN1CCN(C(=O)c2c(-c3ccccc3)c3cc([N+](=O)[O-])ccc3n2C)CC1 [KML110, (1-Methyl-5-nitro-3-phenyl-1H-indol-2-yl)(4-methylpiperazin-1-yl)methanone] | – | – | 1.5 | 1.8 | 1.7 | 1.8 | 1.6 | 1.6 | –
C=CCN(C)CCCCCCOc1ccc(C(=O)c2ccc(Br)cc2)c(F)c1 [Ro 48-8071, reference compound] | 2.0 | 2.0 | 1.2 | 1.3 | 1.1 | 1.4 | 0.9 | 1.3 | –
CN1CCN(C(=O)c2[nH]c3ccc([N+](=O)[O-])cc3c2-c2ccccc2)CC1 [MJN228, (4-Methylpiperazin-1-yl)(5-nitro-3-phenyl-1H-indol-2-yl)methanone] | 1.9 | 1.9 | 1.5 | 1.4 | 1.6 | 1.8 | 1.4 | 1.6 | SILAC ratio Mtdh ([2]; competitor 10 μM): 1.3; SILAC ratio Mtdh ([2]; competitor 50 μM): 1.6; SILAC ratio Mtdh ([2]; competitor 100 μM): 1.9; SILAC ratio, Ptges2 ([3]; competitor 10 μM): 1.3; SILAC ratio, Ptges2 ([3]; competitor 100 μM): 2.3; SILAC ratio, Mboat7 ([4]; competitor 10 μM): 1.2; SILAC ratio, Mboat7 ([4]; competitor 50 μM): 1.9; SILAC ratio, Mboat7 ([4]; competitor 100 μM): 2.3; SILAC ratio, Creld1 ([5]; competitor 10 μM): 1.4; SILAC ratio, Creld1 ([5]; competitor 50 μM): 2.4; SILAC ratio, Creld1 ([5]; competitor 100 μM): 4.2; SILAC ratio, Pmpca ([6]; competitor 10 μM): 1.2; SILAC ratio, Pmpca ([6]; competitor 50 μM): 1.4; SILAC ratio, Pmpca ([6]; competitor 100 μM): 1.5; SILAC ratio, Dolpp1 ([7]; competitor 10 μM): 1.2; SILAC ratio, Dolpp1 ([7]; competitor 50 μM): 1.9; SILAC ratio, Dolpp1 ([7]; competitor 100 μM): 3.3

Reference: patent publication US10168342B2, “Lipid probes and uses thereof” (THE SCRIPPS RESEARCH INSTITUTE, priority 2015, dated 2019)
